US20060111335A1, “Photoactivated anti-viral and anti-cancer agent” (priority 2002, published 2006)

Columns and labels:
[1] = test system: cells; test: Phototoxicity, summary statement of Example XII; assay type: cell-based
[2] = test system: φX-174 plasmid DNA; test: Photonicking of φX-174 plasmid DNA, gel electrophoresis; assay type: biochemical; conditions: for photonicking of φX-174 plasmid DNA: Example IX, dark and upon exposure to light
Protocol: Photolysis with φX-174 Plasmid DNA. Metal complex solutions (with or without quenchers) were saturated with oxygen or argon prior to irradiation. The solutions were further degassed after being mixed with the plasmid. The final solution concentrations were: DPPZPHEN ([…]), φX-174 plasmid DNA (205 μM in base pairs), superoxide dismutase (25 μg/mL), 2-propanol (0.5 M), mannitol (6.25 mM), histidine (8 mM).
Experiments were conducted as described in Example X to evaluate the amount photonicking that occurred in the dark and upon exposure to light for 37TMBP, 56TMBP, OCTBP, BISNMe2, TMOBP, TIOBP, TPBP, BISTAP and BISDPPZ.

[3] = test system: Calf thymus DNA; test: Dark association with DNA, UV-Visible titration (Example XI); assay type: binding; conditions: 50 mM pH 7 I=0.15 sodium phosphate buffer (physiological condition)
Protocol: Preparation of DNA solution. Calf thymus DNA (Sigma) was dissolved in 50 mM, pH 7, I=0.15 sodium phosphate buffer (Physiological condition) and sonicated. The purity of the DNA was checked by monitoring the absorption spectrum and the ratio of the absorbance at 260 to 280 nm. The ratio were within the acceptable purity margin (1.8±0.1). The concentration of the Calf thymus DNA per phosphate was determined spectrophotometrically: ε253=6600 for calf thymus DNA^1. The concentration was 2.13 E-3 M.
The resulting solution was diluted 4 times with phosphate buffer. […] 0, 50 μL, 150 μL, 200 μL, 300 μL, 350 μL and 500 μL of DNA solutions were added, mixed well with a small disposable needle, and spectra were recorded again. The concentration of the species, the apparent absorbance at 337 nm, and the apparent extinction coefficients at 337 nm were determined from the absorptions spectra and tabulated in Table 1.
The apparent binding constant, Kapp was determined from the plot of [DNA]/Δεapp versus [DNA], where Δεapp=εf−εapp and Δε=εf−εb^2, where εb and εf correspond to the extinction coefficient of the DNA-bound form of the OCTBP derivatives and the extinction coefficient of the DNA-unbound OCTBP derivatives, respectively. […] Cb=(εfCtotal−Aobserved)/Δε The concentration of the DNA-unbound OCTBP derivatives (Cf) can be determined by Cf=Ctotal−Cb […]

[4] = Reversed phase HPLC elution on C8 column as measure of hydrophobicity; assay type: physicochemical
Protocol: Reversed phase high performance liquid chromatography (RP-HPLC) was carried out on C8 columns. Compounds were tested using 20%, 30% and 45% acetonitrile in 100 mM ammonium acetate at pH 5.4 for elution on a C8 column, with the intention of achieving an elution time of about 15 minutes. It was expected that the more hydrophobic a compound, the higher the acetonitrile content one would need for the eluent.

[5] = test system: cell membrane; test: Cell uptake / passage through the cell membrane
Protocol: OCTBP uptake by KB cells. 11 mg of OCTBP was dissolved in 40 mL of PBS buffer. The solution was vortex stirred for 5 minutes to completely dissolve the solid. The solution was sterile filtered through a 0.2μ nylon syringe filter. The concentration of the solution was determined by measuring the UV absorption at 353 nm (ε353nm=1565 M^−1cm^−1).
Once the cells were 75% confluent media was decanted from the flasks and 8 mL of drug solutions were added to three flasks and 8 mL of PBS buffer solution was added to the control flask. The flasks were incubated at 37° C. for 15, 30 and 45 minutes. Control flask was incubated for 45 minutes. When the flasks were removed, they were washed with 6×10 mL of PBS buffer solution. All the liquid was carefully decanted from the flasks. 1 mL of lysing buffer (1% triton X-100) was added to each of the four flasks. The walls of the flasks were rinsed using disposable pipettes. Once all the contents of the flasks were placed into a 1.5 mL disposable centrifuge tubes (each flask yielded ˜1.2 mL), the tubes were centrifuged at 6000 rpm and at 4° C. for 30 minutes on the Fisher Model 59V high-speed centrifuge. BCA Assay was done to establish the amount of cells in each flask.
Rh content of each flask was determined using an inductively coupled plasma (ICP) instrument (AtomScan16, Thermo Elemental, Franklin, Mass.). From each centrifuge tube 1 mL was pipetted and 370 μL of concentrated HCl was added to form a 10% solution. The samples were heated in a hot water bath at 70° C. for 30 minutes. The samples were centrifuged again and the supernatant liquid was diluted to 8 mL by adding nano-pure water. The samples were analyzed for Rh content by ICP.

[6] = test system: KB (human nasopharingeal carcinoma) cells; conditions: cited from earlier work
[7] = test system: DNA; parameters: association with DNA in the dark: dose or concentration left out as unconfirmed; conditions: cited from earlier work
[8] = test system: KB cells; conditions: delivered to cells by liposome; cited from earlier work
[9] = Dark thermal aquation and thermal base hydrolysis; assay type: physicochemical; conditions: 80° C. with 10% NaOH
Description: A dissociation/addition mechanism is generally accepted as responsible for the substitution chemistry associated with a hexacoordinated Rh(III) ligand field triplet (Weiland et al., Inorg. Chem., 25:4893 (1986)). The dissociation step is due to the promotion of an electron from the t2g orbital to the eg orbital, which leads to significant weakening of the metal ligand bonds. (Hipps et al., Inorg. Chem., 13:1544 (1974)).

[10] = test system: nucleic acid; conditions: irradiated with light; cited from earlier work
[11] = test system: Sindbis virus; conditions: cited from earlier work
[12] = test system: naked infectious DNA from phages S13 and G4; conditions: cited from earlier work
[13] = Photodestruction (photoaquation) with visible light >500 nm, HPLC analysis; assay type: physicochemical; conditions: 0.1 mM aqueous, 8 hours under argon
Protocol: Aqueous solutions (3 mL, 0.1 mM) of the Rh complexes were irradiated for 8 hours under argon using a 450 W Hanovia medium pressure mercury lamp filtered through a uranium yellow glass (cut-off<330 nm) and a 1.5 cm 0.5% (w/v) aqueous solution of K2Cr2O7 (0% transmittance≦500 nm). Photodestruction of the metal complexes was followed by HPLC analysis.

[14] = test system: bacteriophage φ6; conditions: cited from earlier work
[15] = test system: HeLa (human cervical carcinoma) cells; conditions: cited from earlier work
[16] = test system: CT DNA; test: Dark interaction of DPPZPHEN with CT DNA, UV-Vis absorption titration at 380 nm; assay type: binding, calf
Protocol: General. The quantity of DNA was determined by the Burton assay (Burton, Biochem. J., 62:315-322 (1956)), and its rhodium content was quantitated using flame atomic absorption spectroscopy (AA). The equilibrium constant for interaction between DPPZPHEN and CT-DNA in the dark was calculated from UV-Vis absorption titration measurements at 380 nm (Wolfe et al., Biochem., 26:6392-6396 (1987); Schemel et al., Biopolymers, 10:465-480 (1971)). Cell viability was determined using the MTT assay (Denizot et al., J. Immunol. Methods, 89:271-277 (1986)). SINV was purified on sucrose gradients as previously described (Owen et al., J. Virol., 70:2757-2763 (1996)). The titer was generally 7-8 log10 pfu/mL at the beginning of each experiment.
Interaction of DPPZPHEN with DNA. […] An intrinsic binding constant of […] 3.4×10^5 M^−1 was calculated using the molar extinction coefficient at the λmax (380 nm) at each titration point.

[17] = 45% acetonitrile in 100 mM ammonium acetate pH 5.4

For `CN(C)C1=c2ccc3c4c2[N](C=C1)[Rh+]1([Cl])([Cl])([N]4C=CC=3N(C)C)[N]2C=CC(N(C)C)=c3ccc4c(c32)[N]1C=CC=4N(C)C.[Cl-]` [BISNMe2, cis-dichlorobis(N,N-dimethylamino)-1,10-phenanthroline} rhodium(III) chloride], the phototoxicity [1] was “are phototoxic”, the “photonicking of φX-174 plasmid DNA” value [2] was “Only TPBP, BISTAP, BISDPPZ and BISDPPHEN complexes were found to photonick” and the “apparent (intrinsic) binding constant Kapp” value [3] was 2.0 E4 M. For the same compound, the elution time [4, 17] was “about 15 minutes” and the “ability to pass through the cell membrane” value [5] was “able to pass through the cell membrane”.

For `[Cl-].[Cl][Rh+]12([Cl])([N]3C=CC=c4c3c3c(c5nccnc45)=CC=C[N]31)[N]1C=CC=c3c1c1c(c4nccnc34)=CC=C[N]12`, the elution time [4, 17] was 8 to 10 min.

In the case of `COC1=c2ccc3c4c2[N](C=C1)[Rh+]1([Cl])([Cl])([N]4C=CC=3OC)[N]2C=CC(OC)=c3ccc4c(c32)[N]1C=CC=4OC.[Cl-]` [TMOBP, cis-dichlorobis(4,7-dimethoxy-1,10-phenanthroline) rhodium(III) chloride], the “photonicking of φX-174 plasmid DNA” value [2] is reported as “Only TPBP, BISTAP, BISDPPZ and BISDPPHEN complexes were found to photonick” and the elution time [4, 17] is reported as “about 15 minutes”.

In the case of `Cc1c(C)c2c3c4c1=CC=C[N]4[Rh+]1([Cl])([Cl])([N]3C=CC=2)[N]2C=CC=c3c(C)c(C)c4c(c32)[N]1C=CC=4.[Cl-]` [56TMBP, cis-dichlorobis(5,6-dimethyl-1,10-phenanthroline) rhodium(III) chloride], the “photonicking of φX-174 plasmid DNA” value [2] is reported as “Only TPBP, BISTAP, BISDPPZ and BISDPPHEN complexes were found to photonick”.

In the case of `[Cl-].[Cl][Rh+]12([Cl])([N]3C=CC=c4c3c3c(c5nc6ccccc6nc45)=CC=C[N]31)[N]1C=CC=c3c1c1c(c4nc5ccccc5nc34)=CC=C[N]12` [BISDPPZ, cis-dichlorobis{dipyrido(3,2-a: 2′,3′-c)phenazine)rhodium (III) chloride], the “photonicking of φX-174 plasmid DNA” value [2] is reported as “found to photonick” and the elution time [4, 17] is reported as “around 30 minutes”.

In the case of `[Cl-].[Cl-].[Cl-].[Rh+3].c1cnc2c(c1)ccc1cccnc12.c1cnc2c(c1)ccc1cccnc12` [BISPHEN, cis-dichlorobis(1,10-phenanathroline) rhodium(III) chloride], the uptake by cells [6] is given as “not taken up”, the “dark association with DNA” value ([7]; dark) is given as “minimal dark association” and the “association with DNA in the dark” value ([7]; very low ionic strength) is given as “only a minimal association”. For the same compound, the “phototoxicity against KB cells” value [8] was “marginal levels of phototoxicity”, the “thermal hydrolysis, rank order” value [9] was “OCTBP≅37TMBP>BISPHEN” and the “frank nicks / nicking of φX-174 supercoiled plasmid DNA upon irradiation” value ([2]; 311 nm irradiation, Example VIII) was “does not generate such frank nicks”. The “covalent binding to nucleic acid upon irradiation” value [10] was “covalently binds to nucleic acid”, the “phototoxicity / virucidal activity against Sindbis virus” value [11] was “minimal phototoxicity” and the “phototoxicity to single stranded and double stranded naked infectious DNA” value [12] was “phototoxic”. For the same compound, the photodestruction [13] was “virtually unaffected”, the elution time ([4]; 20% acetonitrile in 100 mM ammonium acetate pH 5.4) was “about 15 minutes” and the “activity against bacteriophage φ6” value [14] was “did not exhibit any activity”. For the same compound, the “ability to pass through the cell membrane” value [5] was “Neither of these compounds is able to pass through a cell membrane”, the uptake by cells [15] was “not taken up” and the “interaction with CT DNA in the dark” value [16] was “negligible interaction”.

For `[Cl-].[Cl][Rh+]12([Cl])([N]3C=CC(c4ccccc4)=c4ccc5c(c43)[N]1C=CC=5c1ccccc1)[N]1C=CC(c3ccccc3)=c3ccc4c(c31)[N]2C=CC=4c1ccccc1` [TPBP, cis-dichlorobis(4,7-diphenyl-1,10-phenanthroline) rhodium(III) chloride], the “photonicking of φX-174 plasmid DNA” value [2] was “found to photonick” and the elution time [4, 17] was “around 30 minutes”.

In the case of `CC1=c2ccc3c4c2[N](C=C1)[Rh+]1([Cl])([Cl])([N]4C=CC=3C)[N]2C=CC(C)=c3ccc4c(c32)[N]1C=CC=4C.[Cl-]` [37TMBP], the “thermal hydrolysis, rank order” value [9] is reported as “OCTBP≅37TMBP>BISPHEN”, the “photonicking of φX-174 plasmid DNA” value [2] is reported as “Only TPBP, BISTAP, BISDPPZ and BISDPPHEN complexes were found to photonick” and the photodestruction [13] is reported as 6.1 % loss.

In the case of `CC(C)OC1=c2ccc3c4c2[N](C=C1)[Rh+]1([Cl])([Cl])([N]4C=CC=3OC(C)C)[N]2C=CC(OC(C)C)=c3ccc4c(c32)[N]1C=CC=4OC(C)C.[Cl-]` [TIOBP, cis-dichlorobis(3,7-diisopropoxy-1,10 phenanthroline) rhodium(III) chloride], the “photonicking of φX-174 plasmid DNA” value [2] is reported as “Only TPBP, BISTAP, BISDPPZ and BISDPPHEN complexes were found to photonick” and the elution time [4, 17] is reported as “about 15 minutes”.
